Assay results: PubChem BioAssay (NCI)
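Method: 48-hour compound exposure of cells in 96-well plates, five concentrations, linear interpolation of endpoints. Abbreviation: GI50, concentration required for 50% inhibition of growth. Definition used: TGI = concentration required for complete inhibition of growth.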

How the values were obtained:
Assay in all cases: inhibition of tumour cell growth, NCI panel, 48 h
ACHN renal = system: ACHN renal
A549 NSCLC = system: A549 NSCLC
NCI-H23 lung = system: NCI-H23 lung
NCI-H226 lung = system: NCI-H226 lung
MDA-MB-231 breast = system: MDA-MB-231 breast
SNB-75 CNS = system: SNB-75 CNS
SF-268 CNS = system: SF-268 CNS
SW-620 colon = system: SW-620 colon
HOP-92 NSCLC = system: HOP-92 NSCLC
SR leukemia = system: SR leukemia
HCT-15 colon = system: HCT-15 colon
T-47D breast = system: T-47D breast
SK-MEL-5 melanoma = system: SK-MEL-5 melanoma
SNB-19 CNS = system: SNB-19 CNS
UACC-257 melanoma = system: UACC-257 melanoma
A498 renal = system: A498 renal
LOX IMVI melanoma = system: LOX IMVI melanoma
UO-31 renal = system: UO-31 renal
NCI-H460 lung = system: NCI-H460 lung
TK-10 renal = system: TK-10 renal
SF-295 CNS = system: SF-295 CNS
KM12 colon = system: KM12 colon
COLO 205 colon = system: COLO 205 colon
DU-145 prostate = system: DU-145 prostate
K-562 leukemia = system: K-562 leukemia
MALME-3M melanoma = system: MALME-3M melanoma
NCI-H522 lung = system: NCI-H522 lung
HCC-2998 colon = system: HCC-2998 colon
HT29 colon = system: HT29 colon
SN12C renal = system: SN12C renal
CCRF-CEM leukemia = system: CCRF-CEM leukemia
SK-MEL-2 melanoma = system: SK-MEL-2 melanoma
MCF7 breast = system: MCF7 breast
OVCAR-5 ovarian = system: OVCAR-5 ovarian
IGROV1 ovarian = system: IGROV1 ovarian
RPMI-8226 leukemia = system: RPMI-8226 leukemia
HS 578T breast = system: HS 578T breast
SK-OV-3 ovarian = system: SK-OV-3 ovarian
MDA-MB-435 = system: MDA-MB-435
PC-3 prostate = system: PC-3 prostate
HOP-62 NSCLC = system: HOP-62 NSCLC
NCI/ADR-RES ovarian = system: NCI/ADR-RES ovarian
CAKI-1 renal = system: CAKI-1 renal
HL-60(TB) leukemia = system: HL-60(TB) leukemia
HCT-116 colon = system: HCT-116 colon
BT-549 breast = system: BT-549 breast
MOLT-4 leukemia = system: MOLT-4 leukemia
786-0 renal = system: 786-0 renal
OVCAR-3 ovarian = system: OVCAR-3 ovarian
U251 CNS = system: U251 CNS
SK-MEL-28 melanoma = system: SK-MEL-28 melanoma
UACC-62 melanoma = system: UACC-62 melanoma
M14 melanoma = system: M14 melanoma
SF-539 CNS = system: SF-539 CNS
EKVX NSCLC = system: EKVX NSCLC
OVCAR-4 ovarian = system: OVCAR-4 ovarian
OVCAR-8 ovarian = system: OVCAR-8 ovarian

In the case of O=C(CCCCCCNC(=O)C(O)(O)C(F)(F)F)Nc1ncc(-c2ccccc2)s1, the GI50 (ACHN renal) was 3.56 µM, the TGI (ACHN renal) was 15.3 µM and the GI50 (A549 NSCLC) was 5.96 µM. For the same compound, the TGI (A549 NSCLC) was greater than 23.5 µM, the GI50 (NCI-H23 lung) was 4.56 µM and the TGI (NCI-H23 lung) was greater than 23.5 µM. The GI50 (NCI-H226 lung) was 5.58 µM, the TGI (NCI-H226 lung) was greater than 23.5 µM and the GI50 (MDA-MB-231 breast) was 2.48 µM. For the same compound, the TGI (MDA-MB-231 breast) was 14.9 µM, the GI50 (SNB-75 CNS) was 1.33 µM and the TGI (SNB-75 CNS) was greater than 23.5 µM. It also gave a GI50 (SF-268 CNS) of 5.58 µM, a TGI (SF-268 CNS) of 17.8 µM and a GI50 (SW-620 colon) of 2.4 µM. It also gave a TGI (SW-620 colon) of 9.91 µM, a GI50 (HOP-92 NSCLC) of 0.695 µM and a TGI (HOP-92 NSCLC) of 4.26 µM. It also gave a GI50 (SR leukemia) of 1.01 µM, a TGI (SR leukemia) greater than 23.5 µM and a GI50 (HCT-15 colon) of 3.99 µM. The TGI (HCT-15 colon) was 10.5 µM, the GI50 (T-47D breast) was 3.73 µM and the TGI (T-47D breast) was greater than 23.5 µM. It also gave a GI50 (SK-MEL-5 melanoma) of 3.46 µM, a TGI (SK-MEL-5 melanoma) of 7.22 µM and a GI50 (SNB-19 CNS) of 4.81 µM. The TGI (SNB-19 CNS) was 22 µM, the GI50 (UACC-257 melanoma) was 4.91 µM and the TGI (UACC-257 melanoma) was greater than 23.5 µM. It also gave a GI50 (A498 renal) of 0.493 µM, a TGI (A498 renal) of 5.68 µM and a GI50 (LOX IMVI melanoma) of 2.52 µM. It also gave a TGI (LOX IMVI melanoma) of 5.79 µM, a GI50 (UO-31 renal) of 3.72 µM and a TGI (UO-31 renal) of 14 µM. For the same compound, the GI50 (NCI-H460 lung) was 2.57 µM, the TGI (NCI-H460 lung) was greater than 23.5 µM and the GI50 (TK-10 renal) was 0.679 µM. The TGI (TK-10 renal) was greater than 23.5 µM, the GI50 (SF-295 CNS) was 3.49 µM and the TGI (SF-295 CNS) was 8.88 µM. For the same compound, the GI50 (KM12 colon) was 4.51 µM, the TGI (KM12 colon) was greater than 23.5 µM and the GI50 (COLO 205 colon) was 3.5 µM. It also gave a TGI (COLO 205 colon) of 10.5 µM, a GI50 (DU-145 prostate) of 5.26 µM and a TGI (DU-145 prostate) greater than 23.5 µM. It also gave a GI50 (K-562 leukemia) of 1.26 µM, a TGI (K-562 leukemia) greater than 23.5 µM and a GI50 (MALME-3M melanoma) of 1.79 µM. It also gave a TGI (MALME-3M melanoma) of 14.2 µM, a GI50 (NCI-H522 lung) of 3.67 µM and a TGI (NCI-H522 lung) of 15.6 µM. The GI50 (HCC-2998 colon) was 4.71 µM, the TGI (HCC-2998 colon) was 13.5 µM and the GI50 (HT29 colon) was 2.72 µM. For the same compound, the TGI (HT29 colon) was greater than 23.5 µM, the GI50 (SN12C renal) was 3.75 µM and the TGI (SN12C renal) was greater than 23.5 µM. The GI50 (CCRF-CEM leukemia) was 2.93 µM, the TGI (CCRF-CEM leukemia) was greater than 23.5 µM and the GI50 (SK-MEL-2 melanoma) was 3.64 µM. The TGI (SK-MEL-2 melanoma) was 14.6 µM, the GI50 (MCF7 breast) was 7.19 µM and the TGI (MCF7 breast) was greater than 23.5 µM. It also gave a GI50 (OVCAR-5 ovarian) of 2.07 µM, a TGI (OVCAR-5 ovarian) of 13.6 µM and a GI50 (IGROV1 ovarian) of 3.23 µM. The TGI (IGROV1 ovarian) was 9.98 µM, the GI50 (RPMI-8226 leukemia) was 1.96 µM and the TGI (RPMI-8226 leukemia) was greater than 23.5 µM. It also gave a GI50 (HS 578T breast) of 2.62 µM, a TGI (HS 578T breast) of 18.4 µM and a GI50 (SK-OV-3 ovarian) of 3.51 µM. It also gave a TGI (SK-OV-3 ovarian) of 17.6 µM, a GI50 (MDA-MB-435) of 4.45 µM and a TGI (MDA-MB-435) greater than 23.5 µM. It also gave a GI50 (PC-3 prostate) of 3.39 µM, a TGI (PC-3 prostate) greater than 23.5 µM and a GI50 (HOP-62 NSCLC) of 4.93 µM. It also gave a TGI (HOP-62 NSCLC) greater than 23.5 µM, a GI50 (NCI/ADR-RES ovarian) of 4.27 µM and a TGI (NCI/ADR-RES ovarian) of 17.1 µM. It also gave a GI50 (CAKI-1 renal) of 5.6 µM, a TGI (CAKI-1 renal) greater than 23.5 µM and a GI50 (HL-60(TB) leukemia) of 3.53 µM. For the same compound, the TGI (HL-60(TB) leukemia) was greater than 23.5 µM, the GI50 (HCT-116 colon) was 0.7 µM and the TGI (HCT-116 colon) was greater than 23.5 µM. For the same compound, the GI50 (BT-549 breast) was 2.47 µM, the TGI (BT-549 breast) was 16.6 µM and the GI50 (MOLT-4 leukemia) was 1.3 µM. For the same compound, the TGI (MOLT-4 leukemia) was greater than 23.5 µM, the GI50 (786-0 renal) was 3.8 µM and the TGI (786-0 renal) was greater than 23.5 µM. The GI50 (OVCAR-3 ovarian) was 2.38 µM, the TGI (OVCAR-3 ovarian) was 5.97 µM and the GI50 (U251 CNS) was 3.07 µM. It also gave a TGI (U251 CNS) of 10.8 µM, a GI50 (SK-MEL-28 melanoma) of 3.29 µM and a TGI (SK-MEL-28 melanoma) greater than 23.5 µM. For the same compound, the GI50 (UACC-62 melanoma) was 1.65 µM, the TGI (UACC-62 melanoma) was 5.61 µM and the GI50 (M14 melanoma) was 5.32 µM. It also gave a TGI (M14 melanoma) greater than 23.5 µM, a GI50 (SF-539 CNS) of 5.63 µM and a TGI (SF-539 CNS) greater than 23.5 µM. The GI50 (EKVX NSCLC) was 8.16 µM, the TGI (EKVX NSCLC) was greater than 23.5 µM and the GI50 (OVCAR-4 ovarian) was 11.1 µM. It also gave a TGI (OVCAR-4 ovarian) greater than 23.5 µM, a GI50 (OVCAR-8 ovarian) of 2.9 µM and a TGI (OVCAR-8 ovarian) greater than 23.5 µM.
